Tested on: blood insulin level
Experiment: Effect of monoacylglycerol in inhibiting postprandial increase in blood insulin level in mouse (oral emulsion, ELISA, AUC)
Type: in vivo, Male C57BL/6J mice
Settings: mice, TAG compared with only glucose, MAG in an amount of 1/10 or 1/5 of that of TAG compared with TAG/MAG0 group
Method: Triolein was employed as a triacylglycerol, and 1-monoolein was employed as a monoacylglycerol.
Male C57BL/6J mice (eight weeks old) were divided into groups (eight mice each). Through a probe, mice of the respective groups were orally administered the following substance: only glucose (2 mg/g-body weight) (Glucose); glucose (2 mg/g-body weight) plus triolein (TAG) (2 mg/g-body weight) emulsified with egg yolk lecithin (0.02 mg/g-body weight) (TAG/MAGO); TAG/MAGO supplemented with 1-monoolein (MAG) of 0.08, 0.2 and 0.4 mg/g-body weight, respectively (TAG/MAG1, TAG/MAG2 and TAG/MAG3). […] Blood was collected from the orbital vein of each mouse over time until 30 minutes after oral administration, and blood insulin level was measured, followed by calculation of the area under the curve (AUC) of a graph. Blood insulin level was measured through ELISA (insulin assay kit, product of Morinaga Institute of Biological Science, Inc.).

Question: For `CCCCCCCC/C=C\CCCCCCCC(=O)OCC(O)CO` (stereo not shown) [MAG, 1-monoolein], which “postprandial blood insulin level (amount of postprandial insulin secretion), result in words” value is on record?
Answer: Its value is “decreased postprandial blood insulin level”.

— patent US20090124691A1, “INHIBITOR OF INCREASE IN POSTPRANDIAL BLOOD INSULIN LEVEL” (Kao Corporation, priority 2006, published 2009)
